Reference: ChEMBL document CHEMBL1201862, “PubChem BioAssay data set” (2004)
Calls of active or inactive are those of the source.

Assays:
[1] = reduced cellular PGC1a acetyl-lysine signal – cell-based, cherry-picked samples, dose response (AID 720514); assay type: functional;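 also: potency may reflect raised or lowered acetylation signal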
[2] = blockers of HIV-1 ZM109 envelope-driven cell-cell fusion – HeLa effector, CEM target cells, luciferase, cherry-pick, dose response (AID 652058); assay type: functional, cell-based;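 also: luciferase signal from HIV-1 Env mediated cell-cell fusion of effector and target cells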
[3] = HIV-1 AD8 envelope cell-cell fusion blockers – cherry-pick, dose response (AID 652062); assay type: functional, cell-based;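 also: luciferase signal from cell-cell fusion driven by HIV-1 clade B AD8 Env; potency is for inhibitors of fusion seen as a drop in luminescence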
[4] = blockers of HIV-1 envelope-mediated cell-cell fusion – cherry-pick, dose response (AID 652057); assay type: functional, cell-based
[5] = HEK-293T viability loss after treatment – luminescence, T-cell screen hits, cytotoxicity control for TCR NF-kB inhibitor project, dose response (AID 489026); assay type: functional, cell-based;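 also: cells exposed to compound about 14 hours before the viability readout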
[6] = molecular target: Cytochrome P450 2C9 (Homo sapiens, UniProt P11712)
[7] = tested on: SN12K1; experiment: cells; assay type: functional; details: Homo sapiens
[8] = tested on: P388/ADR; experiment: cells; assay type: functional; details: Mus musculus
[9] = tested on: P388; experiment: cells; assay type: functional; details: Mus musculus
[10] = molecular target: Cytochrome P450 3A4 (Homo sapiens, UniProt P08684);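 also: CYP3A4 tested as one member of a cytochrome P450 panel screen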
[11] = molecular target: T1, Cytochrome P450 1A2 (Homo sapiens, UniProt P05177);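 also: PubChem cytochrome P450 panel assay, CYP1A2 panel member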
T1 sequence (P05177 whole entry): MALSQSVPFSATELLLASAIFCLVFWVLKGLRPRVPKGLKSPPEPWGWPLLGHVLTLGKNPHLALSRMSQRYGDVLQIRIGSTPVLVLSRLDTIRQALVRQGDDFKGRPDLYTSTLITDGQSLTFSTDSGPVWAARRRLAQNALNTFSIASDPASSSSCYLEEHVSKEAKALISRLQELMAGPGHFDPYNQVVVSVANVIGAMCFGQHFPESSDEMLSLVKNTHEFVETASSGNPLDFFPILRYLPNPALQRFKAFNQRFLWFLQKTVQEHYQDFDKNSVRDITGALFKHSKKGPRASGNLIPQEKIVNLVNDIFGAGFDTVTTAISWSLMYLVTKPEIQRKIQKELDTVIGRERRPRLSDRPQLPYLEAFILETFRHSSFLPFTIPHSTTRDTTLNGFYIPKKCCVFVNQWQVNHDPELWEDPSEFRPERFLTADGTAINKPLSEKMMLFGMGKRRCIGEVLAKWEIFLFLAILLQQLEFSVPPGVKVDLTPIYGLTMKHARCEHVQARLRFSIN

[12] = molecular target: T2, Protein RecA (Mycobacterium tuberculosis, UniProt P9WHJ3); experiment: Fluorescence Cell-Free Homogeneous Dose Retest to Identify Inhibitors of RecA-Intein Splicing Activity. [Related pubchem assays (depositor defined):AID2097, AID2223, AID489010, AID492950]; assay type: functional
T2 sequence (P9WHJ3 whole entry): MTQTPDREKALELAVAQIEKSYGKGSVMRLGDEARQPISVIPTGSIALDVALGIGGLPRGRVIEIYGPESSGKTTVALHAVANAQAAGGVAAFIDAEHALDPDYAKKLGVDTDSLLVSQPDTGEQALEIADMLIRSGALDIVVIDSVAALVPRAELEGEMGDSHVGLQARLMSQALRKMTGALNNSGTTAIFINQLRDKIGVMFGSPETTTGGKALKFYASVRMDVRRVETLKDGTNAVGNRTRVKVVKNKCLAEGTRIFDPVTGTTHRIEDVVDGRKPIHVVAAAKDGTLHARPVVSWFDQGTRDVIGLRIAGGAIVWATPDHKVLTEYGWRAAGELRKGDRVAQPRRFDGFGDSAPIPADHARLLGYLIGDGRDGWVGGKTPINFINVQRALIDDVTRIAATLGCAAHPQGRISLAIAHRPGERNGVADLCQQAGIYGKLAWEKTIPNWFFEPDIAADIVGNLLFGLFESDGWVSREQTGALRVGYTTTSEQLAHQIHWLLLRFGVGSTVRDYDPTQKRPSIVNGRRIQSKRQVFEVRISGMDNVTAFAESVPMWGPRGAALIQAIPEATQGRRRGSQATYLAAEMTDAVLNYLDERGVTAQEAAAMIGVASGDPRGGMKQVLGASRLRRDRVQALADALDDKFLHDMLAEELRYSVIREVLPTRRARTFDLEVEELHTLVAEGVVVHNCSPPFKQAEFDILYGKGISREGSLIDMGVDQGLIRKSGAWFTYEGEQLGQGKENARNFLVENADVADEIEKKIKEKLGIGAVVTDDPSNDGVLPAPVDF

[13] = viability of PTEN-deleted HCT116 cells – cell-based, HCT116 PTEN knockout, dose response (AID 1047); assay type: functional;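 also: HCT116 colon tumor cells with PTEN knocked out; cells exposed to compound for 60 hours before readout; potency for loss of cell viability measured by luminescence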
[14] = molecular target: T3, Replicative DNA helicase DnaB (Mycobacterium tuberculosis, UniProt P9WMR3); experiment: DnaB intein splicing inhibitors, dose response, biochemical, cell-free fluorescence (AID 449749); assay type: functional
T3 sequence (P9WMR3 whole entry): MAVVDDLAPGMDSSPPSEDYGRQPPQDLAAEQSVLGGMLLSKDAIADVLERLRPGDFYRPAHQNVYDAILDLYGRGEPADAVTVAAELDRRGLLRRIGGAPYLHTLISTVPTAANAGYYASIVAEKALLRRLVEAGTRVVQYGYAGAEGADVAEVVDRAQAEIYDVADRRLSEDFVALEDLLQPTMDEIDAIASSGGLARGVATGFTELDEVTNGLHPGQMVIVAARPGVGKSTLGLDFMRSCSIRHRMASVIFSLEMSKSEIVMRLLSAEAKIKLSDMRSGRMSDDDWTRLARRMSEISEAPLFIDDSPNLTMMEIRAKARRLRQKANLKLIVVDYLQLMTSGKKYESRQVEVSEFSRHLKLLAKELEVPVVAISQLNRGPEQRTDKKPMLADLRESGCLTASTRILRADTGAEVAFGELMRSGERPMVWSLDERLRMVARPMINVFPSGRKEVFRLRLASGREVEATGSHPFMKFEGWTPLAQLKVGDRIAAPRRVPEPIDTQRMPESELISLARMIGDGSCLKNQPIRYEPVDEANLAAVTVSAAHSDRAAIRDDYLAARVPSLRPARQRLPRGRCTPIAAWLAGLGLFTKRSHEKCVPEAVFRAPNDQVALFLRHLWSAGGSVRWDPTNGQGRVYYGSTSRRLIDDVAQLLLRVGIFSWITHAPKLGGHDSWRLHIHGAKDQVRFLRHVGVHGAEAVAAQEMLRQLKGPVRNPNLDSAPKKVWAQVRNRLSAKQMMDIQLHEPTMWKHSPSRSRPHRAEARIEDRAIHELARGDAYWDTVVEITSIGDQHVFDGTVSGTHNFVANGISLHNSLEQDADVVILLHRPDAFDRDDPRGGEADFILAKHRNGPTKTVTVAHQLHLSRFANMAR

[15] = viability of HCT116 lacking mutant beta-catenin – cell-based, human colon tumor, dose response (AID 1045); assay type: functional;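 also: HCT116 colon tumor cells with beta catenin knocked out; cells exposed to compound for 60 hours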
[16] = molecular target: Cytochrome P450 2C19 (Homo sapiens, UniProt P33261); experiment: Cytochrome panel assay with activity outcomes. Panel member name: p450-cyp2c19 Compounds with AC50 equal or less than 10 uM are considered active; assay type: functional
[17] = molecular target: Cytochrome P450 2D6 (Homo sapiens, UniProt P10635);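 also: CYP2D6 member of a cytochrome P450 panel assay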
[18] = molecular target: T4, High affinity choline transporter 1 (Homo sapiens, UniProt Q9GZV3); experiment: human choline transporter blockers, potency – cell-based, 5-point CRC, membrane potential dye, dose response (AID 504840); assay type: functional
T4 sequence (Q9GZV3 whole entry): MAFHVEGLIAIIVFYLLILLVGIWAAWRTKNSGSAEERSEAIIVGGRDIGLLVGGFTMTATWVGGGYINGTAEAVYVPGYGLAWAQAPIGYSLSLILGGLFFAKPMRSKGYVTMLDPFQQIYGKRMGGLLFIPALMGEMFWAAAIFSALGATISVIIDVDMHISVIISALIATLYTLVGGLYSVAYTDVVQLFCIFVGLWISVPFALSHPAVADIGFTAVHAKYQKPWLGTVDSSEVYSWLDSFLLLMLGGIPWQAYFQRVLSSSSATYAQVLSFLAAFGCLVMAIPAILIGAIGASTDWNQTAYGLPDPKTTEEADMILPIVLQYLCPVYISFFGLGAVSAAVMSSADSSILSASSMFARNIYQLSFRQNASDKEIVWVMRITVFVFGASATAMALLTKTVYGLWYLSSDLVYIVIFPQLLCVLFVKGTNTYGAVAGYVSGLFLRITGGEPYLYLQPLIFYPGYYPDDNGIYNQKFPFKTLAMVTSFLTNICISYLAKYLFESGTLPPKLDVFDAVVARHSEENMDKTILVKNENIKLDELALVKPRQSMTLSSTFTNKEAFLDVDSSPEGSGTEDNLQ

[19] = tested on: BJ; experiment: BJ-TERT-LT-ST fibroblast viability loss – cell-based, RAS-independent, luminescence, dose response (AID 1935); assay type: functional; details: Homo sapiens;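 also: BJ fibroblasts immortalized with TERT plus LT and ST oncogenes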
[20] = tested on: BJ; experiment: cells; assay type: functional, cell-based; details: Homo sapiens
[21] = tested on: BJ; experiment: BJ-TERT fibroblast viability loss – cell-based, RAS-independent, luminescence, dose response (AID 1933); assay type: functional; details: Homo sapiens
[22] = DRD fibroblast viability loss – cell-based, non-viral oncogenic, luminescence, dose response (AID 1934); assay type: functional; details: Homo sapiens

Cytochrome P450 2C9, sequence (P11712 whole entry): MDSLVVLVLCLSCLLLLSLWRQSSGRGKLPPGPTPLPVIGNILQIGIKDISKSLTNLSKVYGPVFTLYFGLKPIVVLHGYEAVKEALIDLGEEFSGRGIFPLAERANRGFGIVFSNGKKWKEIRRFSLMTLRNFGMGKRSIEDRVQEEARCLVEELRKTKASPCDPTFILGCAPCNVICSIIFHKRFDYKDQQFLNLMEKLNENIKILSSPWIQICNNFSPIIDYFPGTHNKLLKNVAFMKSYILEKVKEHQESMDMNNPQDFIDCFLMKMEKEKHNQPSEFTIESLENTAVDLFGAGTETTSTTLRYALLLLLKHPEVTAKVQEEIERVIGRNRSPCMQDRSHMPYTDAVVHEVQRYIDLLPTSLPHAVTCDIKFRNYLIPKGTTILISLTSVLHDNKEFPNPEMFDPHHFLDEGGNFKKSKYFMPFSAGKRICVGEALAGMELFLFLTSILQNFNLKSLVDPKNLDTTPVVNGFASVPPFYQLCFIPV
Cytochrome P450 2C19, sequence (P33261 whole entry): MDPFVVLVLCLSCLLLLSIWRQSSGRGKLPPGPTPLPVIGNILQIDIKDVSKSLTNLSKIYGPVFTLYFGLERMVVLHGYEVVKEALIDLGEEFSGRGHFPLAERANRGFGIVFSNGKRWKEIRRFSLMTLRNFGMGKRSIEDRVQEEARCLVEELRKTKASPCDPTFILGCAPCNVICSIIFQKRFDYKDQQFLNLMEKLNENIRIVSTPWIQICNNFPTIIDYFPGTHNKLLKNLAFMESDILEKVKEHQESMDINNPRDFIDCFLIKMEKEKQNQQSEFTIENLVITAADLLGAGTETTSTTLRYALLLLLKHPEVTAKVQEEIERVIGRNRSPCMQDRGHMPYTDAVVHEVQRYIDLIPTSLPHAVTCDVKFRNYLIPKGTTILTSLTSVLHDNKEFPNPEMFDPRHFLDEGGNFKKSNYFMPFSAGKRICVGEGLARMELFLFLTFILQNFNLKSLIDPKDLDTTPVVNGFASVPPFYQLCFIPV
Cytochrome P450 3A4, sequence (P08684 whole entry): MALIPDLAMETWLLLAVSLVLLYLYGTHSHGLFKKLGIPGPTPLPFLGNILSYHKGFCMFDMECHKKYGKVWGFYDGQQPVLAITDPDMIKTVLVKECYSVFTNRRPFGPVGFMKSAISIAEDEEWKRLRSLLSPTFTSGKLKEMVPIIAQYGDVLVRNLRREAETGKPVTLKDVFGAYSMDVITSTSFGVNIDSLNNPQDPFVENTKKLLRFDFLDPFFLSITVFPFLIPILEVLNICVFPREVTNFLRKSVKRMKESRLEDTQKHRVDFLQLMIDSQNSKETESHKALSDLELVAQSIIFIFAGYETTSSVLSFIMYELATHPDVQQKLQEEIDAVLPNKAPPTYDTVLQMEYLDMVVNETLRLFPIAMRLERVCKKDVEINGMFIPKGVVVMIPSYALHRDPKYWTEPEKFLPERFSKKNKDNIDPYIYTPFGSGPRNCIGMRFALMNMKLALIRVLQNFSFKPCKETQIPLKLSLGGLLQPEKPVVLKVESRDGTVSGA
Cytochrome P450 2D6, sequence (P10635 whole entry): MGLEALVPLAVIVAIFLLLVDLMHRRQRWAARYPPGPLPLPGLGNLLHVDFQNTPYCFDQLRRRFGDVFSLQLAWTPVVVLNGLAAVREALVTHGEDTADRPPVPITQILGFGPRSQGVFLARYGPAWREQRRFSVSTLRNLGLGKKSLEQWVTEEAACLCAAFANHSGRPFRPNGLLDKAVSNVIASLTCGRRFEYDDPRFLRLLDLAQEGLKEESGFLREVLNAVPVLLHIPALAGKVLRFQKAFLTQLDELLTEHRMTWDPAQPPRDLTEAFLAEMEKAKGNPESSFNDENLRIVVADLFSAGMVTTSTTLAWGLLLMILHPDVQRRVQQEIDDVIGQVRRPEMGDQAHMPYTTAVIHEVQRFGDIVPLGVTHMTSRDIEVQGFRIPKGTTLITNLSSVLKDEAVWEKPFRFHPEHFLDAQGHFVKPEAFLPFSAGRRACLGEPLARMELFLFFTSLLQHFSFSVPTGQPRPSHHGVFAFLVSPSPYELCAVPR

C[C@H]1CCCCO[C@H](CN(C)Cc2ccc3c(c2)OCO3)[C@@H](C)CN([C@@H](C)CO)C(=O)c2cc(NC(=O)Nc3ccc(C(F)(F)F)cc3)ccc2O1
AC50 [1]: 12.1 µM (active)

COc1ccc(NC(=O)Nc2ccc3c(c2)CC(=O)N([C@H](C)CO)C[C@H](C)[C@H](CN(C)S(=O)(=O)c2ccccc2)O3)cc1
AC50 [2]: < 0.26 µM (active)
AC50 [3]: 0.981 µM (active)
AC50 [4]: < 0.26 µM (active)

CCOc1cc(C#N)c(NC(=O)c2cccnc2)cc1OCC
IC50 [5]: > 80 µM (inactive)
AC50 [6]: inconclusive

O=NN(CCF)C(=O)NC1CCSCC1
GI50 [7]: > 100 µM (inactive)
GI50 [8]: > 100 µM (inactive)
GI50 [9]: > 100 µM (inactive)

CSc1ccccc1N1CCN(C(=O)Nc2ccc3c(c2)NC(=O)CO3)CC1
AC50 [6]: inconclusive

CCc1ccccc1NC(=O)c1nnn(CC(=O)Nc2ccccc2C)c1N
AC50 [10]: 25.1 µM (inconclusive)
AC50 [6]: inconclusive

O=C(C[C@H]1C[C@@H]2c3cc(NS(=O)(=O)c4ccc(F)cc4)ccc3O[C@@H]2[C@H](CO)O1)NCCc1ccccc1
AC50 [2]: 1.2 µM (active)
AC50 [3]: 8.44 µM (active)
AC50 [4]: 0.666 µM (active)

Cc1ccc2c(c1)N(CCC(=O)N1CCC3(CC1)OCCO3)C(=O)C(C)O2 (configuration not stated)
AC50 [6]: inconclusive
AC50 [11]: 0.00631 µM (inconclusive)

Cc1ccc(Cn2ncc(Cl)c(Cl)c2=O)cc1
EC50 [12]: 7.65 µM (active)
AC50 [1]: 8.4 µM (active)
EC50 [13]: 10.5 µM (active)
AC50 [14]: 14.3 µM (active)
EC50 [15]: 7.68 µM (active)

COCCNC(=O)c1cc(-c2cccc(OC)c2)on1
AC50 [6]: inconclusive
AC50 ([16]; read-out: AC50): 28.2 µM (inconclusive)

COc1ccc(C2=NOC(C(=O)NCc3ccco3)C2)cc1OC (configuration not stated)
AC50 [6]: inconclusive
AC50 [16]: inconclusive
AC50 [11]: 39.8 µM (inconclusive)

Cc1ccc(C2CC2c2nnc(S)n2-c2ccc(Cl)cc2)cc1 (configuration not stated)
AC50 [1]: 37.2 µM (active)

COc1cccc2c1C(=O)c1c(O)c3c(c(O)c1C2=O)C[C@@](O)(C(=O)CO)C[C@@H]3OC1CC(N)CC(C)O1 (some centres not stated)
GI50 [7]: 0.02 µM (active)
GI50 [8]: 0.367 µM (active)
GI50 [9]: 0.0349 µM (active)

C[C@@H](COc1ccc(/C=C\c2ccccc2)cc1)[N+](C)(C)C
AC50 [17]: 3.16 µM (inconclusive)
AC50 [10]: 10 µM (inconclusive)
AC50 [6]: inconclusive
AC50 [16]: inconclusive

O=C(NNC(=S)Nc1ccccc1)c1cc(Br)ccc1Cl
IC50 [18]: 12.6 µM (active)

COc1nc(O)c(N)c(NC2OC(CO)C(O)C(O)C2O)n1 (configuration not stated)
GI50 [7]: > 100 µM (inactive)
GI50 [8]: 38.5 µM (inactive)
GI50 [9]: 13.3 µM (inactive)

Cc1ccc(C(=O)c2cc([N+](=O)[O-])ccc2N2CCOCC2)cc1C
IC50 [5]: > 80 µM (inactive)
EC50 [19]: 1.75 µM (active)
EC50 [20]: 73.8 µM (inconclusive)
EC50 [21]: 3.06 µM (active)
EC50 [22]: 1.6 µM (inconclusive)

O=Cc1c(Br)[nH]c2ccccc12
GI50 [7]: > 100 µM (inactive)
GI50 [8]: 68.9 µM (inactive)
GI50 [9]: > 55.5 µM (inactive)

O=C(O)/C(=C\c1ccccc1OC(F)F)Sc1nnc(-c2ccc(F)cc2)o1
IC50 [18]: 19.1 µM (active)

CCCCSCC(NC(=O)/C=C/c1c(C)[nH]c(=O)[nH]c1=O)C(=O)OC (configuration not stated)
GI50 [7]: 17.6 µM (inactive)
GI50 [8]: 141 µM (inactive)
GI50 [9]: 55.2 µM (inactive)

COc1cc(/C=C/C(=O)Oc2ccc(NC(C)=O)cc2)ccc1C(=O)OCc1ccccc1
GI50 [7]: 36.5 µM (inactive)
GI50 [8]: 0.69 µM (active)
GI50 [9]: 2.28 µM (inactive)

CC1(C)CC23C4COC(=O)C2CCC1C3CC4=O (configuration not stated)
GI50 [7]: 14.4 µM (inactive)
GI50 [8]: 1.5 µM (inactive)
GI50 [9]: 2.9 µM (inactive)
